According to paper PMC7400437, “Synthesis and Evaluation of the Antibacterial Activities of 13-Substituted Berberine Derivatives” (Antibiotics, 2020):

Key:
C. albicans = test: MIC, antifungal activity assay; type: cell-based, Candida albicans (DSM 10697); conditions: Candida albicans; Table 1 first screening; 35 °C, 24 h; read-out: Minimal Inhibitory Concentration (MIC) C. albicans
M. smegmatis = test: microbe, parasite or virus in culture; type: cell-based, Mycobacterium smegmatis (mc2155, ATCC 700084); conditions: Mycolicibacterium smegmatis, 72 h, read-out: Minimal Inhibitory Concentration (MIC) M. smegmatis
S. aureus = test: MIC, antimicrobial activity assay; type: cell-based, Staphylococcus aureus (ATCC 6538P); conditions: Staphylococcus aureus; Table 1 first screening; read-out: Minimal Inhibitory Concentration (MIC) S. aureus
E. coli = test: MIC, antimicrobial activity assay; type: cell-based, Escherichia coli (ATCC 8739); conditions: Escherichia coli; Table 1 first screening; read-out: Minimal Inhibitory Concentration (MIC) E. coli
B. subtilis = test: MIC, antimicrobial activity assay; type: cell-based, Bacillus subtilis (ATCC 6633); conditions: Bacillus subtilis; Table 1 first screening; read-out: Minimal Inhibitory Concentration (MIC) B. subtilis
P. aeruginosa = test: MIC, antimicrobial activity assay; type: cell-based, Pseudomonas aeruginosa (ATCC 9027); conditions: Pseudomonas aeruginosa; Table 1 first screening; read-out: Minimal Inhibitory Concentration (MIC) P. aeruginosa
[1] = system: bacterial membrane integrity; test: Bacterial membrane permeabilization assay (propidium iodide), strain not specified; type: cell-based; conditions: data not shown
Experimental: Membrane permeabilization by berberine derivatives was evaluated using the cell-impermeable DNA/RNA probe propidium iodide as previously explained. Logarithmic growing bacterial suspensions were prepared from overnight bacterial suspension by 1 in 10 dilution. After 3 h incubation at 37 °C, 200 rpm, bacterial suspensions were centrifuged for 5 min at 3000 rpm. Cell pellets were then resuspended in sterile PBS at about 10^9 cells/mL. Propidium iodide (Sigma Aldrich) was then added to the suspension at a final concentration of 60 µM. 100 µL of this suspension were then transferred into 96-well black plates (Dominique Dutscher) and exposed to increasing concentrations of berberine’s derivative (from 0 to 100 µM, 1:2 dilution). […] All steps of the assay were performed in aerobic condition except for H. pylori which was done in microaerobic condition generated with GasPak unit (Sigma Aldrich). Bacteria were incubated at 37 °C and the kinetics of fluorescence variations (excitation at 530 nm and emission at 590 nm) were then recorded over time using a Synergy Mx microplate reader (Biotek). Cetyl trimethylammonium bromide (CTAB) at 300 µM was used as positive control giving 100% permeabilization. Results were expressed in % of permeabilization. All experiments were done in triplicate.

[2] = system: selected relevant microorganisms; test: Antimicrobial activity, overall statement (active/inactive); type: cell-based
[3] = system: HepG2 (human liver cells); test: Cytotoxic assay on human cells (resazurin); type: cell-based; conditions: HepG2, 48 h, read-out: Inhibitory Concentration 50 (IC50) on cell viability, HEPG2
Experimental: (§1) The toxicity of berberine and berberine’s derivatives on human cells was evaluated using resazurin assay as previously described. Human cells used were BEAS (ATCC CRL-9609), Caco2 (ATCC HTB-37) and HepG2 (ATCC HB-8065) corresponding respectively to human airway epithelial cells, intestinal epithelial cells and liver cells. Cells were cultured in Dulbecco’s modified essential medium (DMEM) supplemented with 10% fetal bovine serum (FBS), 1% L-glutamine and 1% antibiotics (Thermo Fisher Scientific, Illkirch-Graffenstaden, France). Cells were routinely grown on 25 cm^2 flasks and maintained in a 5% CO2 incubator at 37 °C. For toxicity assay, cells were detached using trypsin–EDTA solution (Thermo Fisher Scientific), counted using Mallasez counting chamber and seeded into 96-well cell culture plates (Greiner bio-One, Dominique Dutscher, Brumath, France) at approximately 10,000 cells per well. The cells were left to grow for 48–72 h at 37 °C in a 5% CO2 incubator until they reached confluence. Media from wells was then aspirated and cells were treated with 100 µL of culture media containing increasing concentrations of berberine or berberine’s derivatives obtained by serial dilution (from 0 to 50 µM, 1:2 dilution), DMSO (0.5% DMSO final concentration) was used as negative control. After 48 h incubation at 37 °C in a 5% CO2 incubator, cell viability was evaluated using resazurin based in vitro toxicity assay kit (Sigma-Aldrich) following manufacturer’s instructions. Briefly, cell wells were emptied, and cells were treated with 100 µL of resazurin diluted 1:10 in sterile PBS containing calcium and magnesium (PBS^++, pH 7.4). After 4 h incubation at 37 °C, fluorescence intensity (excitation wavelength of 530 nm/emission wavelength of 590 nm) was measured using Synergy Mx microplate reader (Biotek). The fluorescence values were normalized by the controls (DMSO treated cells) and expressed as percent viability. The IC50 values of berberine and berberine’s derivatives on cell viability (i.e., the concentration of derivative causing a reduction of 50% of the cell viability) were calculated using GraphPad® Prism 7 software (San Diego, CA, USA). t-Test and two ways ANOVA analyses were used to address the significant differences between mean values with significance set at p < 0.05.

[4] = system: Caco2 (human intestinal epithelial cells); test: Cytotoxic assay on human cells (resazurin); type: cell-based; conditions: Homo sapiens, Caco-2, 48 h, read-out: Inhibitory Concentration 50 (IC50) on cell viability, Caco2
Experimental: as §1

[5] = system: BEAS (human airway epithelial cells); test: Cytotoxic assay on human cells (resazurin); type: cell-based; conditions: Epithelial cell, 48 h, means +/−SD, read-out: Inhibitory Concentration 50 (IC50) on cell viability, BEAS
Experimental: as §1

| Compound | MIC (C. albicans) [µM] | MIC (M. smegmatis) [µM] | melting point [°C] | MIC (S. aureus) [µM] | MIC (E. coli) [µM] | MIC (B. subtilis) [µM] | MIC (P. aeruginosa) [µM] | membrane permeabilization (inactive derivatives) [1] | antimicrobial activity (active/inactive) [2] | IC50 [3] [µM] | IC50 [4] [µM] | IC50 [5] [µM] |
| --- | --- | --- | --- | --- | --- | --- | --- | --- | --- | --- | --- | --- |
| CCOC(=O)Cc1c2[n+](cc3c(OC)c(OC)ccc13)CCc1cc3c(cc1-2)OCO3 [Compound 4, 13-(Acetic Acid Ethylester) Berberine] | > 100 | 100 | 216 | > 100 | > 100 | > 100 | > 100 |  |  |  |  |  |
| COc1cc(Cc2c3[n+](cc4c(OC)c(OC)ccc24)CCc2cc4c(cc2-3)OCO4)cc(OC)c1OC [Compound 15, 13[(3,4,5-Trimethoxyphenyl)methyl]Berberine] | > 100 | 50 |  | 100 | > 100 | > 100 | > 100 | low to no membrane permeabilization | No Activity |  |  |  |
| COc1ccc2c(Cc3ccc(/C=C/C(=O)c4cc(NC(C)=O)ccc4O)cc3)c3[n+](cc2c1OC)CCc1cc2c(cc1-3)OCO2 [Compound 24, N-{3-[(2E)-3-{4-[(Berberin-13-yl)methyl]phenyl}prop-2-enoyl]-4-hydroxyphenyl}acetamide] | > 100 | 25 |  | 50 to 100 | > 100 | 100 | > 100 | low to no membrane permeabilization | No Activity |  |  |  |
| COc1ccc2c(Cc3ccc(F)cc3)c3[n+](cc2c1OC)CCc1cc2c(cc1-3)OCO2 [Compound 6, 13-(4-Fluorobenzyl)Berberine] | > 100 | 25 | 238 | 12.5 to 25 | > 100 | 50 | > 100 |  |  | > 50 | 36.9 ± 4.3 | > 50 |
